Measured values published in patent publication US6919043B2, “Method of sterilization for container, apparatus using therefor and heat treatment for container” (Dai Nippon Printing Co., Ltd., priority 2002, dated 2005).
Where two headings read alike, the source gives them in different places.

Test system: Bacillus subtilis spore
Details: rinsing 3 sec, log(adhesion bacilli/survival bacilli)
Method: Sterilization process was performed, changing the conditions of a detail according to the following procedure for PET bottle (bottle made from a polyethylene terephthalate) with a capacity of 500 ml.
The hot blast 3 was supplied to the interior of the bottle per minute 0.1 m from the nozzle with a bore of 10 mm, and the preheating of the bottle was carried out. The temperature of hot blast was set as 105° C.-125° C. near the nose of the nozzle, and the amount of insertions into the bottle of the nozzle was set as 30 mm. Simultaneously, the hot blast of 85° C. was turned and sprayed on the lip portion of a bottle by the flow rate of 3 per minute 0.1 m from the nozzle with a bore of 50 mm. In addition, the number of nozzles for the lip portion heating was two to one bottle. The blasting time of the hot blast from each nozzle was set up in 3 seconds. The temperature in the bottle after the hot blast supplying had reached 50° C.
The bottle was left for 0.5-3.5 seconds after the mist supplying. Then, the nozzle was inserted into the bottle and hot blast was blown for 1 second. The bore of the nozzle, the amount of insertions of the nozzle, and the temperature and the flow rate of the hot blast were the same as the preheating.
The bottle was left for 1-3.5 second after hot blast blowing in. Then, the bottle was inverted and was inserted the a nozzle a nozzle with a bore of 6 mm in the interior, and the bottle was rinsed for aseptic water which is heated by 70° C. for 3 seconds. The flow rate of aseptic water was 8.5 L/min.
Moreover, a part of process was omitted when sterilization process was performed.
About each of each sterilization conditions, five bottles with the Bacillus subtilis spore of 103, 104, and 105 was sterilized, the trypto-soy bouillon medium was distributed aseptically in the bottle, and the existence of culture and sterilization was evaluated. The bacterial number of survivals was computed by the most probable number (MPN: most probable number) in probability theory from the test result in each sterilization conditions, and the following formula estimated the sterilization effect in quest of the opposite numeric value of the number of adhesion bacilli, and the number of survival bacilli.
Sterilization effect=log (the number of adhesion bacilli/the number of survival bacilli).

Compound `OO` [hydrogen peroxide] has a Sterilization effect (Condition 1: preheating 50 °C, mist 35 μl, leaving 3.5 sec, hot blast Yes, standing 1.0 sec) of 6.5, a Sterilization effect (Condition 2: preheating 50 °C, mist 25 μl, leaving 3.5 sec, hot blast Yes, standing 1.0 sec) of 5.5 and a Sterilization effect (Condition 3: preheating 50 °C (neck portion not heated from the outside), mist 20 μl, leaving 3.5 sec, hot blast Yes, standing 1.0 sec) of 5.0. It also gave a Sterilization effect (Condition 4: preheating 50 °C, mist 15 μl, leaving 3.5 sec, hot blast Yes, standing 1.0 sec) of 4.5, a Sterilization effect (Condition 5: preheating 50 °C (neck portion heated from the exterior), mist 20 μl, leaving 3.5 sec, hot blast Yes, standing 1.0 sec) of 5.5 and a Sterilization effect (Condition 6: preheating No, mist 40 μl, leaving 3.5 sec, hot blast Yes, standing 1.0 sec) of 3.0. For the same compound, the Sterilization effect (Condition 7: preheating No, mist 20 μl, leaving 3.5 sec, hot blast Yes, standing 1.0 sec) was less than 2, the Sterilization effect (Condition 8: preheating 50 °C, mist 30 μl, leaving 0.5 sec, hot blast Yes, standing 3.5 sec) was 3.0 and the Sterilization effect (Condition 9: preheating 50 °C, mist 20 μl, leaving 0.5 sec, hot blast Yes, standing 3.5 sec) was less than 2. It also gave a Sterilization effect (Condition 10: preheating 50 °C, mist 20 μl, leaving 3.5 sec, hot blast No, standing 1.0 sec) of 4.0 and a Sterilization effect (Condition 11: preheating 50 °C, mist 15 μl, leaving 3.5 sec, hot blast No, standing 1.0 sec) of 3.0.
